# From patent US12653887B2, “T cell manufacturing compositions and methods” (priority 2019, dated 2026)
# What was measured:
# HLA-A02:01 = molecular target: T1, HLA-A02:01 (Homo sapiens, UniProt P04439, D140Y/D185E/D98H/E176V/E277Q/G131W/G231S/I119V/I121R/I166T/I218V/L300P/L318F/N151K/N90K/P208A/P217A/Q86G/Q94H/R138H/R169H/T345S); assay: Epitope presentation after RNA electroporation of CD25 depleted PBMC, HLA immunoprecipitation and LC-MS/MS; format: cell-based; settings: over 24 hours
# T1 construct: endogenous in cells; host or cells: CD25 depleted PBMCs (donor cells)
# Experimental: CD25 depleted PBMC cells were electroporated with RNA (depicted in FIG. 60C) and cultured over a period of 24 hours. Cells were harvested at the indicated times, pelleted and flash frozen. HLA-A02:01-peptide complexes were immunoprecipitated and then peptides were eluted and analyzed by LC-MS/MS. Peptide eluted from electroporated cells (Light) were compared to heavy labelled standard peptides (Heavy) for positive identification. (FIG. 63A).
# CD8+ T cells = assay: RNA nucleofection of differently prepared PBMCs, multimer assay; format: cell-based, human; settings: for Hit Rate (%) / Mean Frequency: immunogen RNA (25 mer epitopes)
# Experimental: In this experiment, PBMCs were variously treated for depletion of certain populations and their expansion and multimer specificity was investigated. Yield of multimer specific T cells was tested by nucleofecting three sets of PBMC preparations with RNA constructs: (i) CD25 depleted PBMCs, (ii) CD14 and CD25 depleted PBMCs, (iii) Frozen CD14 and CD25 depleted PBMCs. In preparation (i), T cells were not separated from the APCs during nucleofection like in preparation (ii) and (iii). These were compared with a set of PBMCs loaded with peptides. All cells were treated with FLT3L prior to electroporation. […] It could be possible that less handling of PBMCs before RNA loading step was advantageous. Depletion of multiple cell components in the PBMC population required subjecting the cell population to multiple antibodies, washing steps and recovery steps, which amounts to handling stress for the cells.
# CD25 depleted PBMCs had detectable Gli3 specific CD8+ T cells, and ME1 specific CD8+ T cells. ME1 specific CD8+ T cells were negligible in all the other sets.
# CD8+ naïve T cells = assay: CD8+ naïve T cell induction (protocol 1 / protocol 2), pMHC multimer flow cytometry; format: cell-based, human; settings: for fraction of antigen specific CD8+ T cells (multimer): HD35
# Experimental: • DC media (Cellgenix) • CD14 microbeads, human, Miltenyi #130-050-201 • Cytokines and/or growth factors • T cell media (AIM V+RPMI 1640 glutamax+serum+PenStrep) • Peptide stocks—1 mM per peptide (HIV A02—5-10 peptides, HIV B07—5-10 peptides, DOM—4-8 peptides, PIN—6-12 peptides) Procedure: Step 1: Monocyte Isolation for DC Prep • 1. Calculate the approximate number of PBMCs to thaw based on expected DC yield for each donor. • 2. Thaw PBMCs and resuspend at ˜1×10^6-1×10^8 cells/mL in DC media. • 3. Add benzonase (1:1000 dilution) and place in incubator with cap loosened. • 4. Perform CD14^+ monocyte enrichment according to manufacturer protocol. • 5. Plate enriched cells in 6-well plates at 1×10^5-1×10^7 per well in DC media with one or more cytokines and/or growth factors selected from GM-CSF, IL-4, FLT3L, TNF-α, IL-1β, PGE1, IL-6, IL-7, IFN-α, R848, LPS, ss-rna40, and polyI:C. Step 2: Peptide Loading and Maturation • 1. Count DCs and split the cells according to the experimental conditions in 15 mL tubes; 0.01-1 million cells per condition. • 2. Spin @1200 rpm for 5 min and resuspend in 50-400 μL DC medium. Add peptide(s) and place in incubator with loosened cap for 0.5-3 hrs. Volumes were calculated for peptide pools at a concentration of 1 mM per peptide. A volume of each separate pool of A02 (5 peptides) and B07 (5 peptides) was added per well for a final concentration of 0.001-100 μM per peptide. • 3. After 0.5-3 hrs. add 200 μL to 1.5 mL of DC media containing maturation mix and transfer the cells to 24 well plate. The maturation mix contains one or more cytokines selected from GM-CSF, IL-4, FLT3L, TNF-α, IL-1β, PGE1, IL-6, IL-7, IFN-α, R848, LPS, ss-rna40, and polyI:C. Step 3: Setting Up Long Term Stimulation (LTS) Experiment • 1. Carefully remove all media from the wells of the DC plates, transferring each well to a separate well in a 24-well deepwell block. • 2. Wash each well with 0.5-3 mL T cell media and combine with DC media in the deepwell block. • 3. Add 100 μL to 2 mL T cell media to each well. • 4. Spin down DCs at 1200 rpm for 5 min. • 5. Remove all supernatant, resuspend DCs in 100 μL to 2 mL T cell media and transfer back into the correct wells. • 6. Thaw PBMCs in T cell media and resuspend at 0.5×10^6-4×10^6 cells/mL in T cell media with IL-7 and IL-15. • 7. Add 0.5-3 mL of prepared PBMCs to each well. Step 4: Feeding LTS
# • AIM V media (Invitrogen) • Media 1 (RPMI 1640 glutamax+serum+PenStrep) • Media 2 (AIM V+RPMI 1640 glutamax+serum+PenStrep) Procedure: • Step 1: Plate 4 million PBMCs in each well of 24 well plate with one or more cytokines in Media 2. The one or more cytokines are selected from GM-CSF, IL-4, FLT3L, TNF-α, IL-1β, PGE1, IL-6, IL-7, IFN-α, R848, LPS, ss-rna40, and polyI:C. • Step 2: Peptide loading and maturation in Media 2 • 1. Make stock peptide pool of interest (except for no peptide condition) at 0.001-100 μM for shortmers and 0.001-100 μM for longmers final concentration in respective wells and mix. • 2. Incubate for 0.5-3 hr. • 3. Make stock maturation cocktail and add to each well after incubation and mix. […]
# [1] = Donor 1, starting material CD14-CD25- (Base Arm)
# [2] = Donor 1, starting material CD14-CD25- (Frozen)
# [3] = Donor 1, starting material PBMC (CD25−), IL-7 and IL-15
# [4] = Donor 2, starting material CD14-CD25- (Base Arm)
# [5] = Donor 2, starting material CD14-CD25- (Frozen)
# [6] = Donor 2, starting material PBMC (CD25−), IL-7 and IL-15
# [7] = Donor 2, starting material PBMC (CD25−)
Substance,presentation of the epitope by HLA-A02:01 after RNA electroporation (HLA-A02:01),Hit Rate (%) (CD8+ T cells; [1]),Hit Rate (%) (CD8+ T cells; [2]),Hit Rate (%) (CD8+ T cells; [3]),Hit Rate (%) (CD8+ T cells; [4]),Hit Rate (%) (CD8+ T cells; [5]),Hit Rate (%) (CD8+ T cells; [6]),Mean Frequency (CD8+ T cells; [4]) [%],Mean Frequency (CD8+ T cells; [5]) [%],Mean Frequency (CD8+ T cells; [7]) [%],further results
ACTN4: previously identified neoantigen (PIN) short peptide; also encoded in RNA (FIASNGVKLV),expressed readily as dominant epitopes,0,0,0,0,0,0,–,–,–,"fraction of antigen specific CD8+ T cells (multimer) (CD8+ naïve T cells; Prot. 2 (CD25 depleted), day 26, confirmation): 0.095%; fraction of antigen specific CD8+ T cells (multimer) (CD8+ naïve T cells; Prot. 2 (CD25 depleted), day 26, initial): 0.376%"
CDK4: CDK4 epitope encoded in the RNA (25 mer epitopes) construct (ACDPHSGHFV),expressed readily as dominant epitopes,0,0,0,0,0,0,–,–,–,–
Gli3: Gli3 epitope encoded in the RNA (25 mer epitopes) construct (RLIPGIPTV),expressed readily as dominant epitopes,100,100,83,100,67,83,0.79,0.12,2.68,"Mean Frequency (CD8+ T cells; [1]): 0.98%; Mean Frequency (CD8+ T cells; [2]): 0.52%; Mean Frequency (CD8+ T cells; Donor 1, starting material PBMC (CD25−)): 6.09%; increase in multimer positive cells, RNA transfected versus peptide loaded PBMCs (CD8+ T cells; FIG. 61B): greater than 10 fold"
ME-1: previously identified neoantigen (PIN) short peptide; also encoded in RNA (FLDEFMEGV),expressed readily as dominant epitopes,0,0,0,83,0,67,0.01,0.01,2.97,"fraction of antigen specific CD8+ T cells (multimer) (CD8+ naïve T cells; Prot. 2 (bulk), day 19, confirmation): 0.927%; fraction of antigen specific CD8+ T cells (multimer) (CD8+ naïve T cells; Prot. 2 (bulk), day 19, initial): 4.15%; fraction of antigen specific CD8+ T cells (multimer) (CD8+ naïve T cells; Prot. 2 (bulk), day 26, confirmation): 2.34%; fraction of antigen specific CD8+ T cells (multimer) (CD8+ naïve T cells; Prot. 2 (bulk), day 26, initial): 12.6%; CD8+ T cells specific to the peptide (CD8+ naïve T cells; protocol 2, after a long induction): 12.6%"
